The target of data set [1] is dihydroorotate dehydrogenase (DHODH) (Homo sapiens, UniProt Q02127). As to the kind of experiment: DHODH inhibition, in vitro assay. The format is biochemical.
The next data set concerns HIV-191US005. As to the kind of experiment: Anti-HIV efficacy in fresh human PBMCs (RT activity and p24 ELISA). The class given is cell-based, HIV-1. The note with it: Human immunodeficiency virus 1, PBMC, 168 h; for EC50: read-out: EC50/nM; for EC90: read-out: EC90/nM. On the technique in general: In an ELISA, binding on a coated surface is turned into a signal by an enzyme label.

For another data set, the system named is human PBMCs. Kind of data set: MTS cytotoxicity in human PBMCs. The note with it: seven days.
Data set [2] deals with HCV subgenomic replicon of genotype 1b. Kind of data set: microbe, parasite or virus in culture. The class given is cell-based. The note with it: Hepatitis C virus, 24 h, read-out: Antiviral Activity EC50/nM.
Data set [3] deals with ET cell line (luc-ubi-neo/ET), Huh7. Kind of data set: CytoTox-1 cytotoxicity in ET cells. The conditions noted are these: 24 h, cell unit μM.
The test system of another data set is Influenza Virus (H7N7). As to the kind of experiment: microbe, parasite or virus in culture. The format is cell-based, avian influenza virus (Fowl Plaque Virus. The conditions noted are these: unidentified influenza virus, H7N7, A549, 16 h; for inhibition at 30 µM: read-out: Antiviral Activity % Inhibition.
Setting [4] is: Table 2, read-out: DHODH IC50/nM.
[5] abbreviates: Table 8, read-out: DHODH IC50/nM.

Read-outs that look alike come from different tables or passages of the source. Where only a bound is given, the exact number is not on record here.

Here are results for 15 molecules from patent publication US8354433B2, “Anti-inflammatory agents as virostatic compounds” (4SC AG, priority 2009, dated 2013).

The inhibition is how much of the control response was suppressed.

Sequence of dihydroorotate dehydrogenase (DHODH) (Q02127 whole entry): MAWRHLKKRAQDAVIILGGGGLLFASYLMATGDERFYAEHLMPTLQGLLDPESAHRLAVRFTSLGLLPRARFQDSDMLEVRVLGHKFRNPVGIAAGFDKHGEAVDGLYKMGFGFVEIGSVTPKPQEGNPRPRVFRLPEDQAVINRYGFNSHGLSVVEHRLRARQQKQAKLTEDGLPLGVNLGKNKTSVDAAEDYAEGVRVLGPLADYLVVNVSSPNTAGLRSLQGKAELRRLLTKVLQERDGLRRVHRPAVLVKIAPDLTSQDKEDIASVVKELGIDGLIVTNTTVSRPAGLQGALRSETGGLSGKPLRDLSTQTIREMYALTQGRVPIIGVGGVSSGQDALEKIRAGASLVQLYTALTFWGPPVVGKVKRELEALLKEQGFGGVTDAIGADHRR

As to `O=C(O)C1=C(C(=O)Nc2c(F)cc(-c3ccccc3Cl)cc2F)CSC1` [Compound 2, 4-(2′-Chloro-3,5-difluoro-biphenyl-4-ylcarbamoyl)-2,5-dihydro-thiophene-3-carboxylic acid], the IC50 was less than 20 nM in data set [1] (DHODH IC50/nM, Table 1) and less than 20 nM in data set [1] (setting [4]). Also, the EC50 came to 920 nM with HIV-191US005 (Endpoint RT, seven days); 1380 nM in the data set on HIV-191US005 (Endpoint p24, seven days); 680 nM in data set [2]. Besides, the EC90 was 2590 nM in the data set with HIV-191US005 (Endpoint RT, seven days) and 2770 nM in the data set on HIV-191US005 (Endpoint p24, seven days). For the same molecule, in the data set with human PBMCs, the TC50/nM is on record as greater than 100000 nM. This molecule had a TC50 in data set [3] greater than 100 µM.

As to `O=C(Nc1ccc(-c2ccccc2)cc1)Nc1ccccc1C(=O)O` [Compound 7, 2-(3-biphenyl-4-ylureido)benzoic acid], in data set [1] (DHODH IC50/nM, Table 1), the IC50 is less than 20 nM. Moreover, in the data set with HIV-191US005 (Endpoint RT, seven days), the EC50 is 50 nM and the EC90 amounted to 210 nM. In addition, in the data set with HIV-191US005 (Endpoint p24, seven days), the EC50 was determined as 60 nM and the EC90 stood at 230 nM. The TC50/nM in the data set on human PBMCs was greater than 100000 nM.

For the molecule `COc1cccc(-c2c(F)c(F)c(NC(=O)c3occc3C(=O)O)c(F)c2F)c1` [Compound 8, 2-(2,3,5,6-tetrafluoro-3′-methoxybiphenyl-4-ylcarbamoyl)furan-3-carboxylic acid], the IC50 in data set [1] (DHODH IC50/nM, Table 1) was less than 20 nM; in data set [1] (setting [5]), less than 20 nM. Also, the EC50 in the data set with HIV-191US005 (Endpoint RT, seven days) amounted to 760 nM; in the data set on HIV-191US005 (Endpoint p24, seven days), 840 nM. Besides, the EC90 in the data set on HIV-191US005 (Endpoint RT, seven days) amounted to 2700 nM; in the data set on HIV-191US005 (Endpoint p24, seven days) it was 2970 nM. Further, the TC50/nM in the data set on human PBMCs is recorded as greater than 100000 nM. Besides, the inhibition at 30 µM in the data set on Influenza Virus (H7N7) was greater than 50%.

Regarding `CCOc1cccc(-c2cc(F)c(NC(=O)c3cscc3C(=O)O)c(F)c2)c1` [Compound 9, 4-(3′-ethoxy-3,5-difluorobiphenyl-4-ylcarbamoyl)thiophene-3-carboxylic acid], the IC50 in data set [1] (setting [5]) was less than 20 nM. The inhibition at 30 µM with Influenza Virus (H7N7) is greater than 80%.

For `COc1cccc(-c2c(F)c(F)c(NC(=O)C3=C(C(=O)O)CCC3)c(F)c2F)c1` [Compound 10, 2-(2,3,5,6-tetrafluoro-3′-methoxybiphenyl-4-ylcarbamoyl)cyclopent-1-enecarboxylic acid], the inhibition at 30 µM in the data set with Influenza Virus (H7N7) is greater than 80%.

Take `COc1ccccc1-c1c(F)c(F)c(NC(=O)C2=C(C(=O)O)CCC2)c(F)c1F` [Compound 11, 2-(2,3,5,6-tetrafluoro-2′-methoxybiphenyl-4-ylcarbamoyl)cyclopent-1-enecarboxylic acid]: in data set [1] (setting [5]), the IC50 is less than 20 nM. Further, in the data set with Influenza Virus (H7N7), the EC50 is roughly 3000 nM and the inhibition at 30 µM is greater than 90%.

With `O=C(O)C1=C(C(=O)Nc2c(F)cc(-c3cccc(OC(F)(F)F)c3)cc2F)CCC1` [Compound 12, 2-(3,5-difluoro-3′-(trifluoromethoxy)biphenyl-4-ylcarbamoyl)cyclopent-1-enecarboxylic acid], in data set [1] (setting [5]), the IC50 was in the range of 20 to 200 nM. The inhibition at 30 µM in the data set with Influenza Virus (H7N7) is greater than 80%.

Consider `O=C(O)C1=C(C(=O)Nc2c(F)c(F)c(-c3cccc(OC(F)(F)F)c3)c(F)c2F)C(O)CC1` (stereo not shown) [Compound 13, 3-hydroxy-2-(2,3,5,6-tetrafluoro-3′-(trifluoromethoxy)biphenyl-4-ylcarbamoyl)cyclopent-1-enecarboxylic acid], for which the IC50 in data set [1] (setting [5]) was less than 20 nM. Further, the inhibition at 30 µM with Influenza Virus (H7N7) is greater than 50%.

With `COc1ccc(-c2ccc(NC(=O)C3=C(C(=O)O)CCC3)cc2Cl)cc1` [Compound 14, 2-(2-chloro-4′-methoxybiphenyl-4-ylcarbamoyl)cyclopent-1-enecarboxylic acid], the IC50 in data set [1] (DHODH IC50/nM, Table 1) is 20 to 200 nM; in data set [1] (setting [5]) it was 20 to 200 nM. Also, the EC50 was 5240 nM in the data set on HIV-191US005 (Endpoint RT, seven days) and 5180 nM in the data set with HIV-191US005 (Endpoint p24, seven days). The EC90 in the data set on HIV-191US005 (Endpoint RT, seven days) stood at 12200 nM; in the data set with HIV-191US005 (Endpoint p24, seven days), 16600 nM. This molecule returned a TC50/nM in the data set with human PBMCs greater than 100000 nM. Moreover, the inhibition at 30 µM with Influenza Virus (H7N7) is greater than 50%.

For `O=C(O)c1cscc1C(=O)Nc1c(F)cc(-c2cccc(OC(F)(F)F)c2)cc1F` [Compound 15, 4-(3,5-difluoro-3′-(trifluoromethoxy)biphenyl-4-ylcarbamoyl)thiophene-3-carboxylic acid], the IC50 in data set [1] (setting [5]) was less than 20 nM. Moreover, the inhibition at 30 µM in the data set with Influenza Virus (H7N7) was greater than 80%.

Consider `O=C(O)C1=C(C(=O)Nc2ccc(OCc3c(F)cccc3Cl)c(F)c2)CCC1` [Compound 21, 2-[4-(2-Chloro-6-fluoro-benzyloxy)-3-fluoro-phenylcarbamoyl]-cyclopent-1-enecarboxylic acid], for which, in data set [1] (setting [4]), the IC50 fell in the range of 20 to 200 nM. The EC50 in data set [2] was determined as 1740 nM. This molecule yielded a TC50 in data set [3] greater than 30 µM.

As to `O=C(O)C1=C(C(=O)Nc2cc(Cl)c(OCc3c(F)cccc3Cl)c(Cl)c2)CCC1` [Compound 22, 2-[3,5-Dichloro-4-(2-chloro-6-fluoro-benzyloxy)-phenylcarbamoyl]-cyclopent-1-enecarboxylic acid], in data set [1] (setting [4]), the IC50 lay within 20 to 200 nM. Further, in data set [2], the EC50 came to 1760 nM. Besides, the TC50 in data set [3] was greater than 30 µM.

With `CN(C)c1ccc(-c2ccc(NC(=O)C3=C(C(=O)O)CCC3)cc2Cl)cc1` [Compound 23, 2-(2-Chloro-4′-dimethylamino-biphenyl-4-ylcarbamoyl)-cyclopent-1-enecarboxylic acid], the IC50 in data set [1] (DHODH IC50/nM, Table 1) was 20 to 200 nM. For the same molecule, the EC50 is 1070 nM in the data set on HIV-191US005 (Endpoint RT, seven days) and 1000 nM in the data set with HIV-191US005 (Endpoint p24, seven days). The EC90 was 3480 nM with HIV-191US005 (Endpoint RT, seven days) and 3720 nM in the data set with HIV-191US005 (Endpoint p24, seven days). Further, the TC50/nM in the data set with human PBMCs is reported as greater than 100000 nM.

Regarding `COc1cccc(-c2ccc(NC(=O)c3ccsc3C(=O)O)c(F)c2)c1` [Compound 24, 3-(3-Fluoro-3′-methoxy-biphenyl-4-ylcarbamoyl)-thiophene-2-carboxylic acid], in data set [1], the IC50 lay in the range of 20 to 200 nM. For the same molecule, the EC50 with HIV-191US005 (Endpoint RT, seven days) amounted to 3970 nM; in the data set with HIV-191US005 (Endpoint p24, seven days) it was 4540 nM. The EC90 in the data set on HIV-191US005 (Endpoint RT, seven days) stood at 9070 nM; with HIV-191US005 (Endpoint p24, seven days), 12300 nM. This molecule showed a TC50/nM in the data set with human PBMCs of 55800 nM.

The molecule `O=C(O)C1=C(C(=O)Nc2c(F)c(F)c(-c3cccc(OC(F)(F)F)c3)c(F)c2F)CSC1` [Compound 25, 4-(2,3,5,6-Tetrafluoro-3′-trifluoromethoxy-biphenyl-4-ylcarbamoyl)-2,5-dihydro-thiophene-3-carboxylic acid] displayed an IC50 in data set [1] (DHODH IC50/nM, Table 1) of less than 20 nM. Besides, in the data set on HIV-191US005 (Endpoint RT, seven days), the EC50 worked out at 1560 nM and the EC90 was 3020 nM. Besides, in the data set on HIV-191US005 (Endpoint p24, seven days), the EC50 was 1180 nM and the EC90 is 3160 nM. Also, the TC50/nM in the data set on human PBMCs is given as greater than 100000 nM.
